# Earlier results in publication PMC3449305 (Bioorganic & medicinal chemistry, 2011).
# Assays:
# [1] = rats
# CNS = conditions: rodents
blood-brain barrier penetration [1],Compound,CNS effect in BOLD imaging (CNS)
crosses the blood–brain barrier,CC(NC(=O)C(CC(=O)N1CCC(N2CCCCC2)CC1)N1C(=O)C(N2C(=O)OCC2c2ccccc2)C1C=Cc1ccccc1)c1ccccc1 (centres unmarked) [SRX246],
,"C[C@@H](NC(=O)[C@@H](CC(=O)N1CCC(N2CCCCC2)CC1)N1C(=O)[C@@H](N2C(=O)OC[C@@H]2c2ccccc2)[C@H]1/C=C/c1cccc(I)c1)c1ccccc1 [Compound 11a, (R)-4-([1,4′-Bipiperidin]-1′-yl)-2-((2R,3S)-2-((E)-3-iodostyryl)-4-oxo-3-((S)-2-oxo-4-phenyloxazolidin-3-yl)azetidin-1-yl)-4-oxo-N-((R)-1-phenylethyl)butanamide]",CNS modulatory effect
